Patent EP1353942B1, “PEPTIDE INHIBITORS OF HIV ENTRY” (WHITEHEAD INSTITUTE FOR BIOMEDICAL RESEARCH, priority 2000, dated 2010)
Read-outs that look alike come from different tables or passages of the source.

How the values were obtained:
[1] = Sedimentation equilibrium (analytical ultracentrifugation); format: physicochemical; details: for Mobs/Mcalc: 20 µM peptide solutions in PBS, 3.0 being a discrete trimer
Description: Sedimentation Equilibrium. All measurements were recorded on a Beckman XL-A analytical ultracentrifuge equipped with an An-60 Ti rotor. Lyophilized peptide was resuspended in water, and the peptide concentration was determined (Edelhoch, 1967). The solution was diluted to 100-200 µM and then dialized overnight against PBS. Following dialysis, the concentration was redetermined and the appropriate dilutions were made, using the dialysis buffer. The samples were centrifuged at speeds ranging from 19,000 to 25,000 RPM.
(§1) The following Table summarizes the biophysical data and inhibitory activity for the chimeric coiled coil N peptides. The first column (θ222nm) is circular dichroism data, representing the helicity of each peptide. The lower the number, the more helical. The second column is the melting temperature and signifies the temperature at which half of the peptide is unfolded. The next column (Mobs/Mcalc) signifies the oligomeric state of the peptide, with 3.0 being a discrete trimer. The final column is the concentration at which each peptide is at half maximal inhibitory potency for viral infection. Table 1. Biophysical data and HIV-1 inhibitory activity
(§2) The second column is the ellipticity at 222 nm of a 20 µM solution of peptide in PBS. The third column lists the midpoint of thermal denaturation of 10 µM solutions of peptide in PBS.

[2] = target: HIV-1 gp41 (C peptide region), from HXB2 gp160 envelope on pseudotyped virus (HIV-1 (HXB2)) (UniProt P04578); assay: cell-based or functional assay
HIV-1 = system: HIV-1
Description: HIV Infectivity Assay. Inhibitory activity was determined in an HIV luciferase assay (Chen et al., 1994). Specifically, virus was made by cotransfecting 293T cells with an HIV-1 genome containing a frame-shift mutation in env and luciferase replacing the nef gene (NL43LucR-E-) along with pCMVHXB2, an expression vector with the HXB2 gp160 gene. The resultant virus is only viable for one round of infection since its genome lacks the envelope gene. The cellular debris was removed by low-speed centrifugation. The remaining viral supernatant was used to infect HOS-CD4/Fusion cells (N. Landau, National Institutes of Health AIDS Reagent Program) in the presence of the potentially inhibitory peptides. Two days post-infection, the cells were lysed and luciferase activity was monitored on a Wallac AutoLumat LB953 luminometer (Gaithersburg, MD). IC50s (the peptide concentration at which half of the viral infection is inhibited) were calculated by fitting the data to a Langmuir equation [y = k/(1+[peptide]/IC50)], where y = luciferase activity and k is a scaling constant.

[3] = Circular dichroism (ellipticity at 222 nm, helicity); format: physicochemical; details: IZN17 at 20 µM
Description: (§3) Circular Dichroism. All CD measurements were performed on an Aviv 62 DS cirucular dichroism spectrometer. Standard scans were performed on 10 µM solutions of peptide in PBS (50 mM sodium phosphate, 150 mM sodium chloride [pH 7.4]) from 200 to 260 nm in a 1 cm pathlength cuvette with a 5 second averaging time. The mean residue ellipticity (θ) was calculated by dividing the raw signal by peptide concentration (M), pathlength (mm) and number of amino acids. Percent helicity was calculated according to Chen et al. (Biochemistry, 13, 1974, p3350). Thermal denaturation scans of 10 µM peptide solutions in PBS were recorded at 222 nm. The peptide was heated at two degree intervals starting at 4°C, with an equilibration time of 1.5 minutes and an averaging time of 60 seconds.
as §1, with “Biophysical data and HIV-1 inhibitory activity” left out

[4] = Thermal denaturation followed by circular dichroism at 222 nm; format: physicochemical
Description: as §3, §1, §2

Row | Substance | Mobs/Mcalc [1] | IC50 (nm), HIV-1 luciferase viral infectivity assay (HXB2 env pseudotyped virus on HOS-CD4/Fusin cells) [2] [nM] | IC50 (HIV-1; concentration of peptide at which half of viral infectivity is inhibited, HOS-CD4/Fusion cells, HXB2 envelope, tentative values) [nM] | IC50 (HIV-1; read-out: IC50 in the viral infectivity assay, viral infectivity assay) [nM] | helicity (in words) [3] | thermal denaturation temperature relative to IQN17 ([4]; In 2 M GuHCl) | Melting Temperature ([4]; midpoint of thermal denaturation of 10 µM solutions of peptide in PBS) [°C] | melt (thermal unfolding) ([4]; no denaturant) | oligomeric state (in words) ([1]; sedimentation equilibrium, IZN17 at 20 µM)
1 | Ac-YGGIKKEIEAIKKEQEAIKKKIEAIEKEIVQARQLLSGIVQQQNNLLRAIEAQQH-NH2 [IZN26] | ∼2.87 |  |  |  |  |  |  |  | 
2 | IZN17 (peptide) |  | 5.6 |  |  |  |  |  |  | 
3 | Ac-IKKEIEAIKKEQEAIKKKIEAIEKLLQLTVWGIKQLQARIL-NH2 [IZN17] | 3.05 |  | 5.6 | ~5.6 | helical | ten degrees higher | >100 | above 100 °C | discretely trimeric
